Molecular target: SARS-CoV-2 M^pro (Severe acute respiratory syndrome coronavirus 2, UniProt P0DTD1)
Assay: SARS-CoV-2 Mpro in vitro enzyme-based assay
Type: biochemical
Details: compound at 10 μM

SMILES: C=C1CCC2[C@](C)(COC(C)=O)[C@H](OC(C)=O)CC[C@@]2(C)[C@@H]1C[C@H](SC(=S)N1CCN(C(=O)C2COc3ccccc3O2)CC1)C1=CCOC1=O (stereo partly shown) [3j]
- inhibition of SARS-CoV-2 M^pro: rather low inhibitory effect
